One compound from BindingDB's records for doi:10.1016/j.bmcl.2010.11.016 (Chosun University, 2011) can be followed below.

The subject of assay [1] is wild type H1N1 swine influenza virus neuraminidase. Nature of the assay: Inhibition of wild type H1N1 swine influenza virus neuraminidase activity expressed in HEK293T cells after 2 hrs by spectrofluorometry.
For assay [2], the system named is Influenza A H9N2 virus neuraminidase. The assay can be described thus: Inhibition of Influenza A H9N2 virus neuraminidase activity after 2 hrs by spectrofluorometry.

Usually IC50 stands for the concentration that gives 50% inhibition. A lower IC50 goes with greater potency.

Turning to `O=C(C=Cc1ccc(O)cc1)c1ccc(O)cc1O`, the IC50 is 13.6 µM in assay [1] and 37.8 µM in assay [2].
